Entries after “also recorded” stand apart in the source; their conditions may differ.
Experiments:
C57BL/6 mice = assay: Organ GlcCer content in C57BL/6 mice after short term i.p. dosing; type: in vivo, mouse; settings: for change in brain GlcCer levels: 10 mg/kg/day i.p. for 3 days, 12 h after last injection; for fall in brain GlcCer levels: 30 mg/kg q 12 h for 3 days i.p.; for liver and kidney GlcCer levels: i.p. 3 days; for brain GlcCer content, short term dosing: i.p. for 3 days, in words
Experimental: C57BL/6 mice were maintained on regular chow in specific-pathogen-free facilities. All animal studies were performed under the review of the University of Michigan Committee on the Use and Care of Animals and conformed to the National Institutes of Health Guide for the Care and Use of Laboratory Animals. Injection solutions were prepared from inhibitor-ethanol stock solution (100 mM) A portion of the stock solution was evaporated under a stream of N2 gas. Dried eliglustat tartrate (compound 3a) was directly dissolved into 1× phosphate buffered saline. […] The acidic solution was neutralized by mixing 100 μL of 10× phosphate buffered saline with 636.3 μL of water to bring the total volume to one ml. Inhibitor solutions were sterilized by passage through a […]. Inhibitor recovery after filtration was confirmed by UV spectrometry and exceeded 99%. For control injections, phosphate buffered saline containing the same amount of HCl was used. Inhibitors were given to 6 to 8 week old female or male C57BL/6 mice by intraperitoneal injection volume at 1% of body weight.
Lipid extractions of liver, kidney, and brain were performed as previously described (7). Briefly, frozen liver (about 0.5 g), two kidneys (about 0.3 g) and whole brain (about 0.4 g) were individually homogenized in sucrose buffer (250 mM sucrose, pH 7.4, 10 mM HEPES and 1 mM EDTA), at 0.2 g tissue/1 mL of sucrose buffer, with a Tri-R homogenizer. Each 0.8 mL of homogenate was mixed with 2 mL of methanol and 1 mL of chloroform, bath sonicated for 1 min and incubated at room temperature for 1 h. Tissue debris were removed by centrifugation at 2,400×gravity for 30 min. The pellets were re-extracted by mixing with 1 mL of methanol, 0.5 mL of chloroform and 0.4 mL of 0.9% NaCl (chloroform/methanol/0.9% NaCl, 1:2:0.8), incubated at room temperature for 1 h and centrifuged at 2,400×gravity for another 30 min. Two extracts were combined and mixed with 4.5 mL of chloroform and 1.2 mL of 0.9% NaCl (chloroform/methanol/0.9% NaCl, 2:1:0.8). After centrifugation at 800×gravity for 5 min, lower layer was washed with 3 mL of methanol and 2.4 mL of 0.9% NaCl. Second washing was carried with 3 mL of methanol, 2 mL of water and 0.4 mL of 0.9% NaCl followed by a 5 min centrifugation at 800×gravity. The resultant lower phase was collected and dried under a stream of N2 gas.
The analysis of neutral glycosphingolipids from mouse liver, kidney, and brain was processed after alkaline methanolysis. […] lipids were incubated with 2 mL of chloroform and 1 ml of 0.21N NaOH in methanol for 2 h (kidney) or 7.5 h (liver and brain) at RT. The lipid extract was normalized to 0.5 μmol of total phospholipid phosphate (liver and kidney) or 2 μmol of total phospholipid phosphate (brain) for high performance thin layer chromatography analysis. After alkaline methanolysis, the brain lipids were passed through a silica gel column (7). Borate-impregnated thin layer chromatography plates were developed in a two solvent system. Plates were first developed in chloroform/methanol (98:2, v/v). The plates loaded with kidney and liver lipids were then developed in chloroform/methanol/water (64:24:4, v/v/v), and brain lipids were further separated in chloroform/methanol/water (60:30:6, v/v/v). GlcCer levels were quantified by comparison to known standards.

[1] = drug distribution studies; cited from earlier work
[2] = target: T1, glucosylceramide synthase (GCS) (Canis lupus familiaris, UniProt A0A8I3MXG6); assay: GCS activity, broken cell (MDCK cell homogenate) assay; type: biochemical, canine
T1 construct: Madin-Darby canine kidney (MDCK) cell homogenates (120 μg of protein) were incubated; endogenous in cells; host or cells: MDCK (Madin-Darby canine kidney) cell homogenate
T1 sequence (A0A8I3MXG6 1-394): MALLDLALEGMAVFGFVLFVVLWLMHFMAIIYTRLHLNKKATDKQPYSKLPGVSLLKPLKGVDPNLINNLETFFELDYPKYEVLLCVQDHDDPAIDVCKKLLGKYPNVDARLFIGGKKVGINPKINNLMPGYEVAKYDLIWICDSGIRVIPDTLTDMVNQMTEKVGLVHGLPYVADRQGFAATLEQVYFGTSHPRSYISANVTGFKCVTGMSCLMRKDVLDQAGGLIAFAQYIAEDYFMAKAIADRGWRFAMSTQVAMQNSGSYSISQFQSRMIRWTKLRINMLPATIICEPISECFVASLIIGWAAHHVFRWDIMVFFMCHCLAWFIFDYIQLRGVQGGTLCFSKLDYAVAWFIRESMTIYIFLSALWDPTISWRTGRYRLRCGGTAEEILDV
Experimental: Enzyme activity was measured as described previously (9). Madin-Darby canine kidney (MDCK) cell homogenates (120 μg of protein) were incubated with uridine diphosphate-[^3H]glucose (100,000 cpm) and liposomes consisting of 85 μg of octanoylsphingosine, 570 μg of dioleoylphosphatidylcholine, and 100 μg of sodium sulfatide in a 200 μL reaction mixture and kept for 1 h at 37° C.

MDR1 = target: T2, MDR1 (Homo sapiens, UniProt P08183); assay: [3H]Vinblastine transport in MDR1-MDCKII cells; type: cell-based; settings: for [3H]vinblastine uptake into MDR1-MDCKII cells: 1-100 μM, 2 h, relative to vehicle
T2 construct: host or cells: MDCKII (canine kidney) cells retrovirally transduced with human MDR-1 cDNA
Experimental: MDR1- and WT-MDCKII cells were grown to confluence on Transwell filters (12 well plates) in DMEM+10% FBS. […] Uptake was measured over 2 hours at 37° C. At that time, uptake was stopped by washing each side of the membrane 3× with ice-cold PBS. Vinblastine uptake into the cells, after correction for any remaining adherent extracellular contamination, was calculated as described previously (11). To investigate the effect of experimental drugs on MDR-mediated transport, those compounds were added to the apical chamber (1-100 μM) during vinblastine uptake and the uptake results expressed as a % of that with vehicle alone.

T2 sequence (P08183 whole entry): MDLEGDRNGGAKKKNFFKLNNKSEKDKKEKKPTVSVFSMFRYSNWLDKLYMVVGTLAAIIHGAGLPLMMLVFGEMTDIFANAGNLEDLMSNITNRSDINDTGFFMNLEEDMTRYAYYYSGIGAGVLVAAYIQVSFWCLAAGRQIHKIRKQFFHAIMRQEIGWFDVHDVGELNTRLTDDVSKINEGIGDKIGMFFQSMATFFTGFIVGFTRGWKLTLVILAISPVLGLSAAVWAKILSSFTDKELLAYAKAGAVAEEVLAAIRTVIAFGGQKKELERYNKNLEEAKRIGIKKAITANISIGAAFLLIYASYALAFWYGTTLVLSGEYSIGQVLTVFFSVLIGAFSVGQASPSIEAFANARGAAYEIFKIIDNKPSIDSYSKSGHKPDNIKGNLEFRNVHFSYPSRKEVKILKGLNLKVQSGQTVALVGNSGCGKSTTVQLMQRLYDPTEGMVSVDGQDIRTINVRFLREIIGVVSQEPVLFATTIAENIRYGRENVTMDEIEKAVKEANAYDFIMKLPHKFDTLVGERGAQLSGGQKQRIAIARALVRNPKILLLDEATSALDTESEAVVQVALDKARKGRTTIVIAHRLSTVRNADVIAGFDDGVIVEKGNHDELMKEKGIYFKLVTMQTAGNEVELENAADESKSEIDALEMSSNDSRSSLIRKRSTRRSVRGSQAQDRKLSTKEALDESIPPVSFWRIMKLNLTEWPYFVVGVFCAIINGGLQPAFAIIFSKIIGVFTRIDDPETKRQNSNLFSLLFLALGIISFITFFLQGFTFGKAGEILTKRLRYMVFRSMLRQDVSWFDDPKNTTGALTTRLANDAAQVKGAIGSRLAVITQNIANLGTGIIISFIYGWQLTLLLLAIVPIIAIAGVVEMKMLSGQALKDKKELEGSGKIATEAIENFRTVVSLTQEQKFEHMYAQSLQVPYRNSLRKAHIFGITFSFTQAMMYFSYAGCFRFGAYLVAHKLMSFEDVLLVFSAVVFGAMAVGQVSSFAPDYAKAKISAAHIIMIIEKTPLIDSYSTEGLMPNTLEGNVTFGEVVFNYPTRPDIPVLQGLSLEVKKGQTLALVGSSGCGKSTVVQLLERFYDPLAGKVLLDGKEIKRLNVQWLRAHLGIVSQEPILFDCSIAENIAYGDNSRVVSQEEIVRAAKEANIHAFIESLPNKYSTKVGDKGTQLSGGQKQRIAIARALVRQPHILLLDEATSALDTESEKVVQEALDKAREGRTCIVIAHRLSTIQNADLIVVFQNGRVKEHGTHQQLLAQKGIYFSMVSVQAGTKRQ

Row | SMILES | change in brain GlcCer levels (C57BL/6 mice) | fall in brain GlcCer levels (C57BL/6 mice) | liver and kidney GlcCer levels (C57BL/6 mice) | liver and kidney GlcCer levels (C57BL/6 mice; listed as eliglustat) | brain GlcCer content, short term dosing (C57BL/6 mice) | brain GlcCer content, short term dosing (C57BL/6 mice; listed as eliglustat tartrate) | transport across the blood brain barrier [1] | IC50 [2] [nM] | [3H]vinblastine uptake into MDR1-MDCKII cells (MDR1) | inhibition of GCS ([2]; in words) | interaction with / recognition by MDR1 (MDR1; assessed by GCS IC50 shift and vinblastine uptake assays)
1 | CCCCCCCC(=O)N[C@H](CN1CCCC1)[C@H](O)c1ccc2c(c1)OCCO2 [Compound 3a, N-((1R,2R)-1-(2,3-dihydrobenzo-[b][1,4]dioxin-6-yl)-1-hydroxy-3-(pyrrolidin-1-yl)propan-2-yl)octanamide, reference compound] | without changes | without any changes | significantly lowered | lowered | failed to demonstrate any change | an effect not seen | not transported across the blood brain barrier | 149 | dose-dependent increase |  | 
2 | O=C(CC1Cc2ccccc2C1)N[C@H](CN1CCCC1)[C@H](O)c1ccc2c(c1)OCCO2 [Compound 3h, 2-(2,3-dihydro-1H-inden-2-yl)-N-((1R,2R)-1-(2,3-dihydrobenzo[b][1,4]dioxin-6-yl)-1-hydroxy-3-(pyrrolidin-1-yl)propan-2-yl)acetamide] | ten percent decrease | 17% |  |  | significant dose dependent decrease; also recorded: significantly lowered |  |  | 27 | no significant dose dependent change | low nanomolar concentrations | little to no apparent recognition by MDR1; also recorded: least interaction with MDR

Source: US8961959B2, “Glucosylceramide synthase inhibitors and therapeutic methods using the same” (The Regents of the University of Michigan, priority 2011, dated 2015)
